This is an account of results in patent US4224326A, “Immunosuppressive agents” (Eli Lilly and Company, priority 1978, dated 1980).

One assay has as its system GVH reaction. Nature of the assay: Graft-versus-host (GVH) reaction, spleen weight. It counts as in vivo, mouse (C57BL spleen cells into C57BL×C3H F1 hybrid). The procedure: In this test, parental (C57BL) mouse spleen cells are injected into mice of an F1 hybrid strain (C57BL×C3H). […] As a consequence, the recipient's spleen becomes enlarged. Immunosuppression prevents or reduces this enlargement. Thus, spleen weights provide a measure of the GVH reaction and its reduction under immunosuppression. A modification of Simonsen's original procedure (Ann. N.Y. Acad. Sci. 73:834, 1958) was employed. Large crops of spleen cells were obtained, without the generally employed manual teasing of spleens, by using Waring blendors with the cutting blades reversed. Two six-second blending periods buffeted the spleens (batches of 25 C57BL spleens in 25-ml saline) sufficiently to free the cells from the connective tissue. The latter was removed by filtration through several thicknesses of cheesecloth. Cell suspensions prepared in this fashion were standardized, by means of Levy-Hausser chamber counts, to contain 6×10^8 nucleated cells per ml. Groups of ten 16-18 gram C57BL×C3H mice were injected intraperitoneally with 1 ml of the donor cell suspension. Treatment, by the oral or subcutaneous route in 0.2 ml, was instituted 3 days prior to cell injection and continued daily for 13 days. Control animals received only cells and vehicle. The spleens were removed and weighed 10 days following cell injection. The results were expressed as mg spleen/gram body weight. Since the injection of syngeneic, i.e., C57BL×C3H, cells into the recipient mice produces a minor degree of splenomegaly, spleen weights of such animals were used to define 100% suppression of the GVH component in calculating percents of inhibition produced by the immunosuppressive compounds.

Assay [1] relates to antibody (hemagglutinin) production against sheep red blood cells. The assay is described as follows: Mouse hemagglutinin assay, oral administration (antibody reduction). The format is in vivo, mouse (male, random-bred, Swiss). The conditions noted are these: Erythrocyte, nine daily doses, pooled sera of 5 mice, read-out: minimum effective dose (MED), lowest dose producing 75 percent or greater antibody reduction. On the procedure:
(§1) Groups of five 20-gram, male, random-bred, Swiss mice received intravenous injections of 5×10^7 sheep red blood cells. The cells for these injections were prepared from lamb's blood (collected in Alsever's solution) by washing three times with 0.85 percent saline and resuspending in 0.85 percent saline. Nine daily doses of each compound to be tested, solubilized in polyethylene glycol 400, were administered orally in 0.1 ml. doses, commencing three days prior to red blood cell injection. Several dose levels of each compound were employed, at 2-fold increments. A control group of mice, receiving a red blood cell injection and nine daily doses of vehicle instead of drug, was included. Six days after the antigen injections, the mice were bled by cardiac puncture and the sera from each 5-mouse group pooled. The serum pools, following complement inactivation, were assayed for hemagglutinin content by standard procedures, utilizing a mixture of serial 2-fold saline dilutions of the test sera with 0.5 percent sheep red blood cell suspensions in plastic depression trays. Following incubation of the trays for 3 hours at 37° C., the hemagglutination patterns were graded.

Assay [2] deals with antibody (hemagglutinin) titer against sheep red blood cells. Nature of the assay: Individual serum assay procedure (hemagglutinin titer). The format is in vivo. The conditions noted are these: Erythrocyte, ten daily doses, 10-mouse groups, read-out: Endpoint Dose (p <0.05), lowest dose significantly lowering antibody titer. On the procedure:
as §1, with “graded. […] The mice were bled as before, but the sera were titered individually rather than as a pool. Mean hemagglutinin values (log2)±S.E. were calculated for each 10-mouse group and p values (by Student's t Test), in comparison with the control group, were determined. […] The drugs were administered orally or subcutaneously in ten daily doses, commencing three days prior to red blood cell injection. Drugs were suspended in a vehicle composed of saline containing 0.125 percent methylcellulose and 0.2 percent nonionic emulsifying agent. Antibody (hemagglutinin) determinations were made seven days following a red blood cell injection.” for “graded.”

Assay [3] concerns adjuvant-induced arthritis (uninjected hind paw swelling, bone damage). The assay is described as follows: Adjuvant-induced arthritis test in rats. The format is in vivo, rat (male Lewis-Wistar). The conditions noted are these: 30 mg/kg/day oral; for % inhibition (uninjected paw volume): printed under Day 18, formula in footnote drawing.
The mark [4] stands for this setting: Day 11, TB control 2.02 ± 0.037.
The mark [5] stands for this setting: Day 14, TB control 2.69 ± 0.106.
The mark [6] stands for this setting: Day 16, TB control 3.26 ± 0.202.
The mark [7] stands for this setting: Day 18, TB control 3.65 ± 0.227.

Molecules are shown by their SMILES. Where two headings read alike, the source gives them in different places.

As to `COc1ccc2nc(NC(=O)Nc3ccccc3)sc2c1` [1-(6-methoxy-2-benzothiazolyl)-3-phenylurea, reference compound], in the assay with GVH reaction (12.5 mg/kg × 13, oral, illustrative calculation with Syn. Control 5.20), the “Percent Inhibition” value was 74%. Also, the “Mg Spleen/g Body Wt. ± S.E.” value in the assay on GVH reaction (12.5 mg/kg × 13, oral, p<0.01 vs GVH control (11.55 ± 1.01), groups of 5 mice) is 6.86 ± 0.80 mg spleen/g body wt.
For `Clc1ccc(C2=Nc3cccc4cccc(c34)N2)cc1` [2-(p-chlorophenyl)-1H-perimidine], the minimal effective dose in assay [1] was 100 mg/kg.
Consider `Brc1ccc(C2=Nc3cccc4cccc(c34)N2)cc1.Cl` [2-(p-bromophenyl)-1H-perimidine hydrochloride], for which the minimal effective dose in assay [2] (sc, subcutaneous) is below 3.1 mg/kg; in assay [2] (oral), 25 mg/kg; in assay [1], 12.5 mg/kg.
As for `Brc1ccc(C2=Nc3cccc4cccc(c34)N2)cc1` [2-(p-bromophenyl)-1H-perimidine], the “Percent Inhibition, GVH Series” value amounted to 19% with GVH reaction (3.1 mg/kg × 13, subcutaneous); 66% in the assay with GVH reaction (6.2 mg/kg × 13, subcutaneous); 79% in the assay on GVH reaction (12.5 mg/kg × 13, subcutaneous); 84% with GVH reaction (25 mg/kg × 13, subcutaneous); 102% in the assay on GVH reaction (50 mg/kg × 13, subcutaneous). In addition, the “Mg Spleen/g mouse weight (mean + S.E.)” value was 8.08 ± 0.66 mg spleen/g mouse weight in the assay on GVH reaction (3.1 mg/kg × 13, subcutaneous, control 8.84 ± 0.72); 6.18 ± 0.39 mg spleen/g mouse weight in the assay with GVH reaction (6.2 mg/kg × 13, subcutaneous, p <0.01, control 8.84 ± 0.72); 5.64 ± 0.65 mg spleen/g mouse weight in the assay on GVH reaction (12.5 mg/kg × 13, subcutaneous, p <0.005, control 8.84 ± 0.72); 5.43 ± 0.41 mg spleen/g mouse weight in the assay with GVH reaction (25 mg/kg × 13, subcutaneous, p <0.001, control 8.84 ± 0.72); 4.70 ± 0.21 mg spleen/g mouse weight in the assay with GVH reaction (50 mg/kg × 13, subcutaneous, p <0.001, control 8.84 ± 0.72). In assay [1], the minimal effective dose is 25 mg/kg.
Turning to `Cl.Clc1cc(C2=Nc3cccc4cccc(c34)N2)ccc1Br` [2-(4-bromo-3-chlorophenyl)-1H-perimidine hydrochloride], the minimal effective dose in assay [1] worked out at 50 mg/kg.
Still for that read-out and setting: in the case of `Brc1ccc(C2=Nc3cccc4cccc(c34)N2)cc1Br.Cl` [2-(3,4-dibromophenyl)-1H-perimidine hydrochloride] it was 50 mg/kg.
Still for that read-out and setting: as for `Cl.Clc1ccc(C2=Nc3cccc4cccc(c34)N2)cc1Br` [2-(3-bromo-4-chlorophenyl)-1H-perimidine hydrochloride], the figure is 50 mg/kg.
Turning to `F.FC(F)(F)Oc1ccc(C2=Nc3cccc4cccc(c34)N2)cc1` [2-(p-TRIFLUOROMETHOXYPHENYL)-1H-PERIMIDINE HYDROFLUORIDE], the minimal effective dose was 12.5 mg/kg in assay [2] (oral) and below 100 mg/kg in assay [1].
For the compound `Cl.Clc1ccc(C2=Nc3cccc4cccc(c34)N2)cc1Cl` [2-(3,4-dichlorophenyl)-1H-perimidine hydrochloride], the minimal effective dose in assay [2] (sc, subcutaneous) is below 3.1 mg/kg; in assay [2] (oral), below 3.1 mg/kg; in assay [1] it was 12.5 mg/kg.
As for `Brc1ccc(C2Nc3cccc4cccc(c34)N2)cc1` [2,3-dihydro-2-(p-bromophenyl)-1H-perimidine], the minimal effective dose in assay [1] was found to be 25 mg/kg.
Turning to `Cl.FC(F)(F)Sc1ccc(C2=Nc3cccc4cccc(c34)N2)cc1` [2-(p-TRIFLUOROMETHYLTHIOPHENYL)-1H-PERIMIDINE HYDROCHLORIDE], the figures for the minimal effective dose in assay [2] (oral) and in assay [1] were 50 mg/kg and below 100 mg/kg, respectively.
As for `Cl.FC(F)(F)C(F)(F)Oc1ccc(C2=Nc3cccc4cccc(c34)N2)cc1` [2-(p-PENTAFLUOROETHOXYPHENYL)-1H-PERIMIDINE HYDROCHLORIDE], the minimal effective dose in assay [1] was found to be 100 mg/kg.
In the case of `Cl.FC(F)(F)c1cccc(C2=Nc3cccc4cccc(c34)N2)c1` [2-(m-trifluoromethylphenyl)-1H-perimidine hydrochloride], the minimal effective dose in assay [1] was 100 mg/kg.
The same measure, in the same setting: as for `Cn1cnc([N+](=O)[O-])c1Sc1ncnc2nc[nH]c12` [Azathioprine, reference compound], the figure is 100 mg/kg; as for `Brc1cccc(C2=Nc3cccc4cccc(c34)N2)c1.Cl` [2-(m-bromophenyl)-1H-perimidine hydrochloride], 100 mg/kg.
`Cl.FC(F)(F)c1ccc(C2=Nc3cccc4cccc(c34)N2)cc1` [2-(p-TRIFLUOROMETHYLPHENYL)-1H-PERIMIDINE HYDROCHLORIDE]: the minimal effective dose in assay [2] (sc, subcutaneous) was below 1.6 mg/kg; in assay [2] (oral), below 1.6 mg/kg; in assay [1] it was 6.25 mg/kg. The “Percent Inhibition, GVH Series” value is 78% in the assay on GVH reaction (1.6 mg/kg × 13, oral); 96% with GVH reaction (3.1 mg/kg × 13, oral); 77% with GVH reaction (6.2 mg/kg × 13, oral); 53% in the assay on GVH reaction (12.5 mg/kg × 13, oral); 101% in the assay on GVH reaction (25 mg/kg × 13, oral). For the same compound, the “Mg Spleen/g mouse weight (mean + S.E.)” value was 5.66 ± 0.33 mg spleen/g mouse weight in the assay with GVH reaction (1.6 mg/kg × 13, oral, p <0.05, control 8.64 ± 1.10); 4.96 ± 0.31 mg spleen/g mouse weight with GVH reaction (3.1 mg/kg × 13, oral, p <0.01, control 8.64 ± 1.10); 5.67 ± 0.51 mg spleen/g mouse weight in the assay on GVH reaction (6.2 mg/kg × 13, oral, p <0.05, control 8.64 ± 1.10); 6.62 ± 1.17 mg spleen/g mouse weight in the assay with GVH reaction (12.5 mg/kg × 13, oral, control 8.64 ± 1.10); 4.75 ± 0.42 mg spleen/g mouse weight in the assay with GVH reaction (25 mg/kg × 13, oral, p <0.005, control 8.64 ± 1.10). Moreover, the “Uninjected Paw Volume” value in assay [3] (Day 9, TB control 1.94 ± 0.028) is recorded as 1.93 ± 0.081; in assay [3] (setting [4]) it was 1.95 ± 0.079; in assay [3] (setting [5]), 2.13 ± 0.148; in assay [3] (setting [6]), 2.35 ± 0.233; in assay [3] (setting [7]), 2.53 ± 0.39. Also, the “Gross observation of X-ray photos, bone damage in injected and uninjected paws” value in assay [3] (day 18, bone damage very obvious in TB control) is “no bone damage”. The “% inhibition (uninjected paw volume)” value in assay [3] is reported as 69%.
As to `CC(C(=O)O)c1cccc(Oc2ccccc2)c1` (stereo not shown) [fenoprofen, reference compound], the “Uninjected Paw Volume” value is 1.97 ± 0.023 in assay [3] (Day 9, TB control 1.94 ± 0.028); 2.11 ± 0.07 in assay [3] (setting [4]); 2.38 ± 0.099 in assay [3] (setting [5]); 2.7 ± 0.107 in assay [3] (setting [6]); 2.67 ± 0.128 in assay [3] (setting [7]). Moreover, the “% inhibition (uninjected paw volume)” value in assay [3] came out at 23%.
